The assay has as its target Poly [ADP-ribose] polymerase 1 (Homo sapiens, UniProt P09874). Description: PARP-1 Enzyme Activity Assay. The method, then: PARP-1 chemical […] detection kit was purchased from BPS Bioscience. The histone solution in the kit was diluted 5× with 1×PBS, and 25 μL of the diluted histone solution was added to a microwell plate and incubated overnight at 4° C. After the incubation, the plate was washed three times with PBST (0.05% Tween-20). 100 μL of the blocking solution was added to the microwell plate and incubated at 25° C. for 90 minutes. After the incubation, the plate was washed three times with PBST. 2.5 μL of compounds at different concentrations diluted in test buffer and 12.5 μL of substrate mixed solution (1.25 μL 10×PARP test buffer; 1.25 μL 10×PARP test mixed solution; 2.5 μL Activated DNA, 7.5 μL double-distilled water) were added to the microwell plate. […] Streptavidin-HRP was diluted 50× with a blocking solution, and 25 μL of the diluent was added to the microwell plate and incubated at 25° C. for 30 minutes. After the incubation, the plate was washed three times with PBST. ELISA ECL substrate A and substrate B were mixed at a ratio of 1:1 (v/v), 50 μL of the mixture was added to the microwell plate, and the chemiluminescence value was read.

This is an account of results in BindingDB's records for patent US20250034168 (Xizang Haisco Pharmaceutical, 2025).

Chain of Poly [ADP-ribose] polymerase 1 (P09874 whole entry): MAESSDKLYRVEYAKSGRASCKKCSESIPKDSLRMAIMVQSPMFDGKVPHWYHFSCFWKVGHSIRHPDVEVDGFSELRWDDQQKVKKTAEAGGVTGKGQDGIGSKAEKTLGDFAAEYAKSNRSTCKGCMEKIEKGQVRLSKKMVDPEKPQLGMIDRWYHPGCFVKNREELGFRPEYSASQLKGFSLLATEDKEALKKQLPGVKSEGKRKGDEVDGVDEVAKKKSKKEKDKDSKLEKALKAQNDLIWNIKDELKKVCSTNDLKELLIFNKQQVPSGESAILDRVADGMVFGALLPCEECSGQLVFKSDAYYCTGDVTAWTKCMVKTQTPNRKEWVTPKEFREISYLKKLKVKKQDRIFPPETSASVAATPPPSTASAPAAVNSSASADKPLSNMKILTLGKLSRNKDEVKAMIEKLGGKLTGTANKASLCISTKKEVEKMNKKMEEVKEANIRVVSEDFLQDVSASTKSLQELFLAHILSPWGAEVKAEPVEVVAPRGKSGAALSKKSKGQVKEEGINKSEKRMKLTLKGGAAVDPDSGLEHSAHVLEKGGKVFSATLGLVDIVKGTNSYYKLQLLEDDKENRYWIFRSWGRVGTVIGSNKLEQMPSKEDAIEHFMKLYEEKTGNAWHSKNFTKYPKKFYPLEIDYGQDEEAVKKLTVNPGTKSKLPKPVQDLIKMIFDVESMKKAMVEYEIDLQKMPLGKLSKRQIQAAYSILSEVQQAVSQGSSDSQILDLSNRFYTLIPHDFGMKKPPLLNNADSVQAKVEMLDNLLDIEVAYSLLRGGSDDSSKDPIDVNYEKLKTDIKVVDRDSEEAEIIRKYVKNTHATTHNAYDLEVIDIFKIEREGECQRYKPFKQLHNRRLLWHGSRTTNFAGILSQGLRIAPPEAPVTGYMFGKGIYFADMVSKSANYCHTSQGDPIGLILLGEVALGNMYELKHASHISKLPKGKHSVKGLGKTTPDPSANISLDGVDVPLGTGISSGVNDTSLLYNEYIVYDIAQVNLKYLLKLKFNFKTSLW

Consider `CCc1cc2ncc(CN3CCC(Nc4ccc(C(=O)NC)nc4)C3)cc2[nH]c1=O` (stereo unspecified) [US20250034168, Compound 7], for which inhibition was half-maximal at 2.8 nM (IC50). This counts as single-digit nanomolar.
